Structures can show the parent of a compound that is named as a salt. Where two headings read alike, the source gives them in different places.
What was measured:
[1] = target: T1, rat histamine H3 receptor (Rattus norvegicus, UniProt Q9QYN8); assay: Rat H3 radioligand binding ([3H]-N-alpha-methylhistamine, CHO-A3 cell membranes, SPA)
T1 construct: encoding the entire 445-amino-acid rat histamine H3 receptor; expressed in transfected cells
Outline: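 Membranes from CHO-A3 cells stably expressing rat H3 (10 μg protein) incubated 4 h at room temperature in 50 mM Tris-HCl pH 7.4, 5 mM MgCl2, 0.1% BSA with ~1 nM [3H]-N-alpha-methylhistamine and compound (0.01 nM-30 μM). Bound radioligand read by scintillation proximity; nonspecific binding with 10 μM clobenpropit.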

human H3 receptor = target: T2, human H3 receptor (Homo sapiens, UniProt Q9Y5N1); assay: Human H3 radioligand binding ([3H]-N-alpha-methylhistamine, CHO cell membranes, SPA); conditions: binding constant as letter class
T2 construct: expressed in transfected cells
T2 sequence (Q9Y5N1 whole entry): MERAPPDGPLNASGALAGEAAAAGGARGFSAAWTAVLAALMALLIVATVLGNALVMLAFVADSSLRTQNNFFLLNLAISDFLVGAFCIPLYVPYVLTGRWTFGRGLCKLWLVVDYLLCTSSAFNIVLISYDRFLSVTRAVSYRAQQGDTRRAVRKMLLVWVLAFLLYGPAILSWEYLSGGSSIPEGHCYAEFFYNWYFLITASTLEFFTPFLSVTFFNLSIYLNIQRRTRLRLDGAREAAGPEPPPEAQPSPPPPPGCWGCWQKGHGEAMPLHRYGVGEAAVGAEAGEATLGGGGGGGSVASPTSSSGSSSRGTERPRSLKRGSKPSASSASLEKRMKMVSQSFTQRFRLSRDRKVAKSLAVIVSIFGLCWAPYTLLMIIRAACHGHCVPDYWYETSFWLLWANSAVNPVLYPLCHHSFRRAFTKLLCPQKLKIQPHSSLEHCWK
Outline: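 CHO cell membranes expressing human H3 (10 μg protein/well) incubated 4 h at room temperature, in the dark, with ~1 nM [3H]-N-alpha-methylhistamine, compounds (0.01 nM-30 μM) and SPA beads in 50 mM Tris HCl pH 7.4, 5 mM MgCl2, 0.1% BSA. Non-specific binding defined with 10 μM clobenpropit.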

[2] = Table A, binding constant as letter class, read-out: Rat H3 Ki
[3] = Table B, binding constant as letter class, read-out: rat H3 Ki

T1 sequence (Q9QYN8 whole entry): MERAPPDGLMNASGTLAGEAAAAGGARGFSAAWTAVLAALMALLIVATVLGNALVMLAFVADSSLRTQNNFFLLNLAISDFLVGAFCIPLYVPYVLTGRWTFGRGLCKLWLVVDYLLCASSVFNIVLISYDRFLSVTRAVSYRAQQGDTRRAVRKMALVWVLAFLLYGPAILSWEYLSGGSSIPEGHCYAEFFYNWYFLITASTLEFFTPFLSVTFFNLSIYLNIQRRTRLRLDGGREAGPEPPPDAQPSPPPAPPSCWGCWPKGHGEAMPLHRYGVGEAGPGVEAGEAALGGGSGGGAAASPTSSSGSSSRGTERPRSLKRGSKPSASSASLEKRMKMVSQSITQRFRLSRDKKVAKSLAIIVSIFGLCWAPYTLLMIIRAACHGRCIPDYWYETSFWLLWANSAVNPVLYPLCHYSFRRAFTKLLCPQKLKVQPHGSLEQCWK

Row | melting point | SMILES | also measured
1 | 155 to 157 °C | Cc1nn(-c2ccccn2)c(=O)cc1-c1ccc(OCCCN2CCC[C@H]2C)cc1 (as salt: hydrochloride) [Example 100, 6-Methyl-5-{4-[3-((R)-2-methyl-pyrrolidin-1-yl)-propoxy]-phenyl}-2-pyridin-2-yl-2H-pyridazin-3-one] | 
2 | 106 °C (dec.) | Cc1cccnc1-n1nc(C)c(-c2ccc(OCCCN3CCC[C@H]3C)cc2)cc1=O (as salt: hydrochloride) [Example 101, 6-Methyl-2-(3-methyl-pyridin-2-yl)-5-{4-[3-((R)-2-methyl-pyrrolidin-1-yl)-propoxy]-phenyl}-2H-pyridazin-3-one] | 
3 | 133 °C (dec.) | C[C@@H]1CCCN1CCCOc1ccc(C2=NNC(=O)CC2c2ccccn2)cc1 (stereo partly drawn) (as salt: hydrochloride) [Example 111, 6-{4-[3-((R)-2-Methyl-pyrrolidin-1-yl)-propoxy]-phenyl}-5-pyridin-2-yl-4,5-dihydro-2H-pyridazin-3-one] | 
4 | 234 °C (dec.) | C[C@@H]1CCCN1CCCOc1ccc(-c2n[nH]c(=O)cc2-c2ccccn2)cc1 (as salt: hydrochloride) [Example 112, 6-{4-[3-((R)-2-Methyl-pyrrolidin-1-yl)-propoxy]-phenyl}-5-pyridin-2-yl-2H-pyridazin-3-one] | 
5 | 232 to 234 °C | O=c1cc(-c2ccc(OC3CCN(C4CCC4)CC3)nc2)cn[nH]1 (as salt: hydrochloride) [Example 117, 5-[6-(1-Cyclobutyl-piperidin-4-yloxy)-pyridin-3-yl]-2H-pyridazin-3-one] | 
6 | 135 to 136 °C | C[C@@H]1CCCN1CCCOc1ccc(-c2ccc(=O)n(CCF)n2)cc1 (as salt: hydrochloride) [Example 118, 2-(2-Fluoro-ethyl)-6-{4-[3-((R)-2-methyl-pyrrolidin-1-yl)-propoxy]-phenyl}-2H-pyridazin-3-one] | 
7 | 135 to 140 °C | COc1cn[nH]c(=O)c1-c1ccc(OCCCN2CCC[C@H]2C)cc1 (as salt: hydrochloride) [Example 237, 5-Methoxy-4-{4-[3-((R)-2-methyl-pyrrolidin-1-yl)-propoxy]-phenyl}-2H-pyridazin-3-one] | 
8 | 60 to 64 °C | CC(C)n1nc(-c2ccc(OCCCN3CCC[C@H]3C)cc2)ccc1=O (as salt: tartrate) [Example 5, 2-Isopropyl-6-{4-[3-((R)-2-methyl-pyrrolidin-1-yl)-propoxy]-phenyl}-2H-pyridazin-3-one] | 
9 | 58 to 62 °C | CCn1nc(-c2ccc(OCCCN3CCC[C@H]3C)cc2)ccc1=O (as salt: tartrate) [Example 6, 2-Ethyl-6-{4-[3-((R)-2-methyl-pyrrolidin-1-yl)-propoxy]-phenyl}-2H-pyridazin-3-one] | 
10 | 169 to 171 °C | CC1CC(=O)NN=C1c1ccc(OCCCN2CCC[C@H]2C)cc1 (mixture of isomers) (as salt: HCl) [Example 194, 5-Methyl-6-{4-[3-((R)-2-methyl-pyrrolidin-1-yl)-propoxy]-phenyl}-4,5-dihydro-2H-pyridazin-3-one] | 
11 | 161 to 163 °C | CC1CC(=O)NN=C1c1ccc(OCCCN2CCCC2)cc1 (racemic) (as salt: HCl) [Example 198, 5-Methyl-6-[4-(3-pyrrolidin-1-yl-propoxy)-phenyl]-4,5-dihydro-2H-pyridazin-3-one] | 
12 | 136 to 139 °C | C[C@@H]1CCCN1CCCOc1ccc(C2=NNC(=O)C3CC23)cc1 (mixture of isomers) (as salt: HCl) [Example 243, 5-{4-[3-((R)-2-Methyl-pyrrolidin-1-yl)-propoxy]-phenyl}-3,4-diaza-bicyclo[4.1.0]hept-4-en-2-one] | 
13 | 167 to 169 °C | Cn1nc(-c2ccc(OCC3CCN(C(=O)OC(C)(C)C)CC3)cc2)c2ccccc2c1=O [Example 62, 4-[4-(3-Methyl-4-oxo-3,4-dihydro-phthalazin-1-yl)-phenoxymethyl]-piperidine-1-carboxylic acid tert-butyl ester] | Ki (human H3 receptor; Table A): > 1 µM; Ki [1, 2]: > 1 µM
14 | 164 to 166 °C | Cn1nc(-c2ccc(OCC3CCN(C(=O)OC(C)(C)C)CC3)cc2)ccc1=O [Example 65, 4-[4-(1-Methyl-6-oxo-1,6-dihydro-pyridazin-3-yl)-phenoxymethyl]-piperidine-1-carboxylic acid tert-butyl ester] | Ki (human H3 receptor; Table A): > 1 µM; Ki [1, 2]: > 1 µM
15 | 129 to 132 °C | Cn1nc(-c2ccc(OC3CCN(C4CCCC4)CC3)cc2)ccc1=O [Example 83, 6-[4-(1-Cyclopentyl-piperidin-4-yloxy)-phenyl]-2-methyl-2H-pyridazin-3-one] | Ki (human H3 receptor; Table B): 0.0001 to 0.1 µM; Ki [1, 3]: 0.0001 to 0.1 µM
16 | 175 to 178 °C | C[C@@H]1CCCN1CCCOc1c(F)cc(-c2ccc(=O)n(C)n2)cc1F [Example 84, 6-{3,5-Difluoro-4-[3-((R)-2-methyl-pyrrolidin-1-yl)-propoxy]-phenyl}-2-methyl-2H-pyridazin-3-one] | Ki (human H3 receptor; Table B): 0.0001 to 0.1 µM; Ki [1, 3]: 0.0001 to 0.1 µM
17 | 118 to 120 °C | Cc1cccc(-n2ncc(-c3ccc(OCCCN4CCC[C@H]4C)cc3)cc2=O)n1 [Example 98, 2-(6-Methyl-pyridin-2-yl)-5-{4-[3-((R)-2-methyl-pyrrolidin-1-yl)-propoxy]-phenyl}-2H-pyridazin-3-one] | Ki (human H3 receptor; Table B): 0.0001 to 0.1 µM; Ki [1, 3]: 0.0001 to 0.1 µM
18 | 225 to 227 °C | Cc1n[nH]c(=O)cc1-c1ccc(OC2CCNCC2)cc1.Cl [Example 102, 6-methyl-5-[4-(piperidin-4-yloxy)-phenyl]-2H-pyridazin-3-one] | Ki (human H3 receptor; Table B): > 1 µM; Ki [1, 3]: > 1 µM
19 | 178 to 179 °C | CC1=NNC(=O)CC1c1ccc(OC2CCN(C3CCC3)CC2)cc1 (stereo not drawn) [Example 110, 5-[4-(1-Cyclobutyl-piperidin-4-yloxy)-phenyl]-6-methyl-4,5-dihydro-2H-pyridazin-3-one] | Ki (human H3 receptor; Table B): 0.0001 to 0.1 µM; Ki [1, 3]: 0.0001 to 0.1 µM
20 | 199 °C (dec.) | O=C1CC(c2ccccn2)C(c2ccc(OC3CCN(C4CCC4)CC3)cc2)=NN1 (stereo not drawn) [Example 114, 6-[4-(1-Cyclobutyl-piperidin-4-yloxy)-phenyl]-5-pyridin-2-yl-4,5-dihydro-2H-pyridazin-3-one] | Ki (human H3 receptor; Table B): 0.0001 to 0.1 µM; Ki [1, 3]: 0.0001 to 0.1 µM
21 | 203 °C (dec.) | O=c1cc(-c2ccccn2)c(-c2ccc(OC3CCN(C4CCC4)CC3)cc2)n[nH]1 [Example 115, 6-[4-(1-Cyclobutyl-piperidin-4-yloxy)-phenyl]-5-pyridin-2-yl-2H-pyridazin-3-one] | Ki (human H3 receptor; Table B): 0.0001 to 0.1 µM; Ki [1, 3]: 0.0001 to 0.1 µM

Row | SMILES | melting point | also measured
22 | CC1CC(=O)NN=C1c1ccc(OC2CCN(C3CCC3)CC2)cc1 (racemic) [Example 189, 6-[4-(1-Cyclobutyl-piperidin-4-yloxy)-phenyl]-5-methyl-4,5-dihydro-2H-pyridazin-3-one] | 163 to 165 °C | Ki [1]: 0.0001 to 0.1 µM
23 | C[C@H](COc1ccc(-c2cn[nH]c(=O)c2)cc1)CN1CCC[C@H]1C [Example 225, 5-{4-[(S)-2-Methyl-3-((R)-2-methyl-pyrrolidin-1-yl)-propoxy]-phenyl}-2H-pyridazin-3-one] | 154 to 156 °C | Ki [1]: 0.0001 to 0.1 µM
24 | C[C@@H](COc1ccc(-c2cn[nH]c(=O)c2)cc1)CN1CCC[C@H]1C [Example 226, 5-{4-[(R)-2-Methyl-3-((R)-2-methyl-pyrrolidin-1-yl)-propoxy]-phenyl}-2H-pyridazin-3-one] | 130 to 133 °C | Ki [1]: 0.0001 to 0.1 µM

— patent US8586588B2, “Aryl pyridazinone derivatives and their use as H3 receptor ligands” (Cephalon, Inc., priority 2006, dated 2013)
